Measurements as given in patent publication US8008329B2 (Dong Wha Pharmaceutical Co., Ltd., priority 2008, dated 2011).
Marks after values point to notes of the source that are not given here.

Tested on: osteoclast differentiation
Experiment: Osteoclast differentiation in co-culture of mouse bone marrow cells and ST2 cells, TRAP staining (Examples 8-9)
Assay type: cell-based
Conditions: for % number of osteoclast (vs. solvent control group): 0.1 μM each, day 7; for activity at 0.1 µM: Mus musculus, Osteoclast, 168 h, Individual treatment (compounds), day 7, read-out: % number of osteoclast (vs. solvent control group)
How it was run: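 Readout was TRAP-positive multinucleated (≥6 nuclei) cells on day 7, reported as % of 0.1% DMSO control, mean±SD of 4 wells. Cells were mouse (male ddY) bone marrow plus ST2 co-cultures driven by 10^−8 M vitamin D3/dexamethasone. Benzamidines, alendronic acid or risedronic acid were added at 0.1 μM alone or combined, with media renewed days 3 and 5.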

[1] = Combination treatment (alendronic acid + compounds)
[2] = Combination treatment (risedronic acid + compounds)

SMILES	% number of osteoclast (vs. solvent control group) [1]	% number of osteoclast (vs. solvent control group) [2]	activity at 0.1 µM
CN(CCN1CCOCC1)c1nc(-c2ccc(OCCCCCOc3ccc(C(=N)NO)cc3)cc2)c(CN2CCOCC2)s1 [Compound 313, N-hydroxy-4-[5-(4-{2-[methyl-(2-morpholin-4-yl-ethyl)-amino]-5-morpholin-4-ylmethyl-thiazol-4-yl}-phenoxy)-pentyloxy]-benzamidine]	23 ± 5.9^ab %	13 ± 3.3^ac %	53 ± 6%
CCCN(CCC)c1nc(-c2ccc(OCCCCCOc3ccc(C(=N)NO)cc3)cc2)c(CC2CCCC2)s1 [Compound 149, N-hydroxy-4-{5-[4-(5-cyclopentylmethyl-2-dipropylamino-1,3-thiazol-4-yl)phenoxy]pentyloxy}-benzamidine]	40 ± 8.8%	31 ± 2.5^ac %	63 ± 9.9%
CCc1sc(C2CCCCC2)nc1-c1ccc(OCCCCOc2ccc(C(=N)NO)cc2)cc1 [Compound 196, N-hydroxy-4-{4-[4-(2-cyclohexyl-5-ethyl-thiazol-4-yl)-phenoxy]-butoxy}-benzamidine]	37 ± 4.6^ab %	42 ± 8.8^ac %	68 ± 7.1%
Cc1nc(-c2ccc(OCCCCCOc3ccc(C(=N)NO)cc3)cc2)c(CCNC2CCCCC2)s1 [Compound 223, N-hydroxy-4-(5-{4-[5-(2-cyclohexylamino-ethyl)-2-methyl-thiazol-4-yl]-phenoxy}-pentyloxy)-benzamidine]	73 ± 8.2%	60 ± 12.6%	81 ± 3.8%
CN(CCO)c1nc(-c2ccc(OCCCCCOc3ccc(C(=N)NO)cc3)cc2)c(CN2CCOCC2)s1 [Compound 310, N-hydroxy-4-[5-(4-{2-[(2-hydroxy-ethyl) -methyl-amino]-5-morpholin-4-ylmethyl-thiazol-4-yl}-phenoxy)-pentyloxy]-benzamidine]	33 ± 5.1^ab %	18 ± 4.5^ac %	49 ± 3.3%
CCc1sc(N(CCO)CCO)nc1-c1ccc(OCCCCCOc2ccc(C(=N)NO)cc2)cc1 [Compound 139, N-hydroxy-4-[5-(4-{2-[bis-(2-hydroxyethyl)amino]-5-ethyl-1,3-thiazol-4-yl}phenoxy)pentyloxy]-benzamidine]	49 ± 7.8%	38 ± 6.9^ac %	64 ± 4.6%
CNc1nc(-c2ccc(OCCCCCOc3ccc(C(=N)NO)cc3)cc2)c(CCN2CCSCC2)s1 [Compound 262, N-hydroxy-4-(5-{4-[2-methylamino-5-(2-thiomorpholin-4-yl-ethyl)-thiazol-4-yl]-phenoxy}-pentyloxy)-benzamidine]	24 ± 2.6^ab %	7 ± 4.9^ac %	47 ± 4.2%
N=C(NO)c1ccc(OCCCCCOc2ccc(-c3nc(N4CCOCC4)sc3CCN3CCSCC3)cc2)cc1 [Compound 273, N-hydroxy-4-(5-{4-[2-morpholin-4-yl-5-(2-thiomorpholin-4-yl-ethyl)-thiazol-4-yl]-phenoxy}-pentyloxy)-benzamidine]	25 ± 4.5^ab %	11 ± 2.9^ac %	53 ± 3.4%
N=C(NO)c1ccc(OCCCCCOc2ccc(-c3nc(N4CCOCC4)sc3C3CCCC3)cc2)cc1 [Compound 172, N-hydroxy-4-{5-[4-(5-cyclopentyl-2-morpholin-4-yl-1,3-thiazol-4-yl)phenoxy]pentyloxy}-benzamidine]	33 ± 5.3^ab %	26 ± 5.1^a %	57 ± 5.1%
Cc1nc(-c2ccc(OCc3ccc(COc4ccc(C(=N)NO)cc4)cc3)cc2)c(C(C)C)s1 [Compound 185, N-hydroxy-4-{4-[4-(5-isopropyl-2-methyl-1,3-thiazol-4-yl)-phenoxymethyl]-benzyloxy}-benzamidine]	57 ± 13.9%	45 ± 1.4^ac %	81 ± 7%
Cc1nc(-c2ccc(OCCCCCOc3ccc(C(=N)NO)cc3)cc2)c(CCNCCCn2ccnc2)s1 [Compound 218, N-hydroxy-4-[5-(4-{5-[2-(3-imidazol-1-yl-propylamino)-ethyl]-2-methyl-thiazol-4-yl}-phenoxy)-pentyloxy]-benzamidine]	39 ± 10.4^b %	25 ± 7.5^ac %	56 ± 1.9%
CN(C)CCc1sc(C2CCCCC2)nc1-c1ccc(OCCCCCOc2ccc(C(=N)NO)cc2)cc1 [Compound 250, N-hydroxy-4-(5-{4-[2-cyclohexyl-5-(2-dimethylamino-ethyl)-thiazol-4-yl]-phenoxy}-pentyloxy)-benzamidine]	45 ± 5.2^b %	12 ± 1.4^ac %	52 ± 7.2%
N=C(NO)c1ccc(OCCCCCOc2ccc(-c3nc(NC(=O)c4ccncc4)sc3CC3CCCC3)cc2)cc1 [Compound 112, N-hydroxy-4-{5-[4-(5-cyclopentylmethyl-2-(4-pyridylcarbonyl)amino-1,3-thiazol-4-yl)phenoxy]pentyloxy}-benzamidine]	35 ± 7.6^ab %	31 ± 8.0^ac %	77 ± 9.8%
N=C(NO)c1ccc(OCCCCCOc2ccc(-c3nc(C4CCCCC4)sc3CCN3CCSCC3)cc2)cc1 [Compound 249, N-hydroxy-4-(5-{4-[2-cyclohexyl-5-(2-thiomorpholin-4-yl-ethyl)-thiazol-4-yl]-phenoxy}-pentyloxy)-benzamidine]	24 ± 4.0^ab %	13 ± 4.8^ac %	36 ± 4%
CCCCc1sc(N(C)CCN2CCOCC2)nc1-c1ccc(OCCCCCOc2ccc(C(=N)NO)cc2)cc1 [Compound 144, N-hydroxy-4-[5-(4-{5-butyl-2-[methyl-(2-morpholinoethyl)amino]-1,3-thiazol-4-yl}phenoxy)pentyloxy]-benzamidine]	44 ± 10.5^ab %	37 ± 4.3^ac %	82 ± 6.7%
CCc1sc(-c2cccnc2)nc1-c1ccc(OCCCCCOc2ccc(C(=N)NO)cc2)cc1 [Compound 21, N-hydroxy-4-{5-[4-(5-ethyl-2-pyridin-3-yl-1,3-thiazol-4-yl)phenoxy]pentyloxy}-benzamidine]	22 ± 7.1^ab %	47 ± 10.1%	52 ± 10.4%
C=Cc1sc(C)nc1-c1ccc(OCCCCCOc2ccc(C(=N)NO)cc2)cc1 [Compound 74, N-hydroxy-4-{5-[4-(5-vinyl-2-methyl-1,3-thiazole-4-yl)phenoxy]pentyloxy}-benzamidine]	36 ± 4.3^ab %	28 ± 5.4^ac %	60 ± 0.7%
CNC(=O)c1sc(N)nc1-c1ccc(OCCCCCOc2ccc(C(=N)NO)cc2)cc1 [Compound 285, N-hydroxy-4-{5-[4-(2-amino-5-methylcarbamoyl-thiazol-4-yl)-phenoxy]-pentyloxy}-benzamidine]	53 ± 0.9%	40 ± 3.9^ac %	70 ± 8%
CCc1sc(N(C)Cc2ccccc2)nc1-c1ccc(OCCCCCOc2ccc(C(=N)NO)cc2)cc1 [Compound 133, N-hydroxy-4-[5-{4-[2-(benzyl-methyl-amino)-5-ethyl-1,3-thiazol-4-yl]phenoxy}pentyloxy]-benzamidine]	42 ± 8.3^b %	25 ± 5.7^ac %	54 ± 8.3%
N=C(NO)c1ccc(OCCCCCOc2ccc(-c3nc(N4CCOCC4)sc3N3CCSCC3)cc2)cc1 [Compound 291, N-hydroxy-4-{5-[4-(2-morpholin-4-yl-5-thiomorpholin-4-yl-thiazol-4-yl)-phenoxy]-pentyloxy}-benzamidine]	20 ± 3.8^ab %	12 ± 3.5^ac %	44 ± 4.9%
CN(CCN1CCOCC1)c1nc(-c2ccc(OCCCCCOc3ccc(C(=N)NO)cc3)cc2)c(C2CCCC2)s1 [Compound 153, N-hydroxy-4-[5-(4-{5-cyclopentyl-2-[methyl-(2-morpholinoethyl)amino]-1,3-thiazol-4-yl}phenoxy)pentyloxy]-benzamidine]	27 ± 3.5^ab %	22 ± 4.5^ac %	55 ± 3.1%
Cc1nc(-c2ccc(OCCCCCOc3ccc(C(=N)NO)cc3)cc2)c(CCN2CCSCC2)s1 [Compound 228, N-hydroxy-4-(5-{4-[2-methyl-5-(2-thiomorpholin-4-yl-ethyl)-thiazol-4-yl]-phenoxy}-pentyloxy)-benzamidine]	31 ± 4.8^ab %	20 ± 5.8^ac %	49 ± 3.5%
Cc1nc(-c2ccc(OCCCCCOc3ccc(C(=N)NO)cc3)cc2)c(CCNC(C)C)s1 [Compound 219, N-hydroxy-4-(5-{4-[5-(2-isopropylamino-ethyl)-2-methyl-thiazol-4-yl]-phenoxy}-pentyloxy)-benzamidine]	51 ± 5.4^b %	40 ± 3.8^c %	61 ± 10.5%
CNc1nc(-c2ccc(OCCCCCOc3ccc(C(=N)NO)cc3)cc2)c(CC2CCCC2)s1 [Compound 109, N-hydroxy-4-{5-[4-(5-cyclopentylmethyl-2-methylamino-1,3-thiazol-4-yl)phenoxy]pentyloxy}-benzamidine]	49 ± 9.8^b %	30 ± 6.5^ac %	60 ± 9.6%
